Measured values taken from article PMC12316891, “A bottom-up approach to find lead compounds in expansive chemical spaces” (Communications Chemistry, 2025).
Where two headings read alike, the source gives them in different places.

What was measured:
[1] = target: T1, His6-BRD4 (BD1) (Homo sapiens, UniProt O60885); test: Surface plasmon resonance (SPR) single-dose screening; type: binding; parameters: key to SPR RESULT: Positive: compounds were considered as SPR hits also when their average signal was further than two standard deviations apart from the average signal of the blank samples (1% DMSO); details: for RUs at [10 µM]: SPR, compound 10 µM, 1% DMSO, n = 2, decimal comma; for SPR RESULT: single dose 10 µM, n = 2
T1 construct: A pET28 plasmid containing residues 44–168 of BRD4 (BD1), a 6xHis tag, a TEV protease cleavage site; made in house; host or cells: E. coli Rosetta (D3)

[2] = target: T2, BRD4 (BD1) (Homo sapiens, UniProt O60885); test: Differential scanning fluorimetry (DSF) single-dose thermal shift screening; type: binding; details: for ΔTm at 10 µM: read-out: ΔTm ºC at [10 µM]
T2 construct: A pET28 plasmid containing residues 44–168 of BRD4 (BD1), a 6xHis tag, a TEV protease cleavage site; 6xHis (N, cleaved yes); made in house; host or cells: E. coli Rosetta (D3)

[3] = target: T2, BRD4 (BD1); test: Competitive HTRF TR-FRET binding assay (displacement of acetylated histone H4 peptide); details: 16-point titration 0.1 nM to 10 µM, n = 2, Negative = curve could not be fitted to a sigmoidal curve; for IC50: read-out: TR-FRET IC50
[4] = DSF, compound 10 µM, BRD4 (BD1) 2 µM, n = 3, decimal comma

Compound | RUs at [10 µM] [1] | ΔTm at 10 µM [2] [°C] | TR-FRET IC50 (nM) [3] | ΔTm ºC at [10 µM] [2, 4] | SPR RESULT [1] | IC50 [3] [nM] | ΔTm at 10 µM [2, 4] [°C]
COc1cc2c(cc1-c1c(C)noc1C)ncc1[nH]c(=O)n([C@H](C)c3ccccn3)c12 [Compound 2, CC1=C(C(=NO1)C)C2=C(C=C3C(=C2)N=CC4=C3N(C(=O)N4)C(C)C5=CC=CC=N5)OC, reference compound] | 95,35 ± 25,76 RUs |  |  |  |  |  | 
Cc1sc2c(c1C)C(c1ccc(Cl)cc1)=NC(CC(=O)OC(C)(C)C)c1nnc(C)n1-2 (stereo not drawn) [Compound 3, CC1=C(SC2=C1C(=NC(C3=NN=C(N32)C)CC(=O)OC(C)(C)C)C4=CC=C(C=C4)Cl)C, reference compound] | 99,15 ± 6,82 RUs | 9.28 |  |  |  |  | 
COc1ccc(-n2c(C)nnc2SCC(=O)Nc2ccc(C)c(Cl)c2Cl)cc1 [Compound 12, COC=1C=CC(=CC1)N2C(C)=NN=C2SCC(=O)NC=3C=CC(C)=C(Cl)C3Cl] | 78,35 ± 18,49 RUs |  | Negative | -0,57 ± 0,38 ºC | Positive |  | 
Cn1ccnc1C1CCN(C(=O)c2nn(C)c(=O)c3ccccc23)C1 (stereo not drawn) [Compound 13, CN1C=CN=C1C2CCN(C2)C(=O)C3=NN(C)C(=O)C=4C=CC=CC34] | 5,53 ± 2,74 RUs |  |  |  | Negative | 1.46 | 0.45
COc1ccc(NS(=O)(=O)c2cc(C(=O)Nc3ccc4nnc(C(C)C)n4c3)ccc2F)cc1 [Compound 14, COC=1C=CC(NS(=O)(=O)C=2C=C(C=CC2F)C(=O)NC=3C=CC4=NN=C(C(C)C)N4C3)=CC1] | 23,29 ± 9,67 RUs |  |  |  | Negative | 661 | 1.94
COc1ccc2c(c1)N(C(=O)c1cn(C)c(=O)c3ccccc13)CC2 [Compound 15, COC=1C=CC=2CCN(C(=O)C3=CN(C)C(=O)C=4C=CC=CC34)C2C1] | 28,19 ± 22,85 RUs |  |  |  | Negative | 1010 | 1.71
CCCc1c(C(=O)NCc2cccc3c2OCCO3)[nH]c(C)c1C(C)=O [Compound 16, CCCC1=C(NC(C)=C1C(=O)C)C(=O)NCC=2C=CC=C3OCCOC23] | 20,24 ± 10,15 RUs |  |  |  | Negative | 1090 | -0.43
COc1ccc(-n2c(C)nnc2SCC(=O)Nc2cn(C)nc2C(N)=O)cc1 [Compound 17, COC=1C=CC(=CC1)N2C(C)=NN=C2SCC(=O)NC3=CN(C)N=C3C(=O)N] | 9,07 ± 0,52 RUs |  |  |  | Positive | 192 | 1.17
COc1ccc(C2(NCC(=O)Nc3cc(-n4nnnc4C)ccc3F)CCOCC2)cc1 [Compound 18, COC=1C=CC(=CC1)C2(CCOCC2)NCC(=O)NC=3C=C(C=CC3F)N4N=NN=C4C] | 2,91 ± 1,98 RUs |  |  |  | Negative | 1140 | -0.7
COc1ccc(-n2c(C)nnc2SCC(=O)NCc2ccc(F)c(C)c2)cc1 [Compound 19, COC=1C=CC(=CC1)N2C(C)=NN=C2SCC(=O)NCC=3C=CC(F)=C(C)C3] | 33,98 ± 20,29 RUs |  |  |  | Negative | 543 | 1.36
Cc1ccc(CNC(=O)c2ccc3nnc(C)c(C)c3c2)c(OC2CCOC2)c1 (stereo not drawn) [Compound 20, CC=1C=CC(CNC(=O)C=2C=CC=3N=NC(C)=C(C)C3C2)=C(OC4CCOC4)C1] | 41,88 ± 12,55 RUs |  | Negative |  | Positive |  | 2.33
CCOc1ccc(-n2nc(Cc3ccncc3)nc2-c2cn(C)c(=O)c3ccccc23)cc1 [Compound 21, CCOC=1C=CC(=CC1)N2N=C(CC=3C=CN=CC3)N=C2C4=CN(C)C(=O)C=5C=CC=CC45] | 38,73 ± 19,2 RUs |  |  |  | Negative | 552 | 2.33
CCCc1c(C(=O)N2CCOC(Cn3cc(-c4ccsc4)nn3)C2)[nH]c(C)c1C(C)=O (stereo not drawn) [Compound 22, CCCC1=C(NC(C)=C1C(=O)C)C(=O)N2CCOC(CN3C=C(N=N3)C=4C=CSC4)C2] | 20,06 ± 0,43 RUs |  |  |  | Positive | 46 | 2.02
CC(C)=CC(=O)NCCC1CCN(C(=O)c2cn(C)c(=O)c3ccccc23)C1 (stereo not drawn) [Compound 23, CC(=CC(=O)NCCC1CCN(C1)C(=O)C2=CN(C)C(=O)C=3C=CC=CC23)C] | 5,93 ± 1,05 RUs |  |  |  | Negative | 3.44 | 2.61
Cc1nn(C)cc1C(=O)NC1CCC2(CC1)CCN(C(=O)c1sc3nnc(C)c(C)c3c1N)CC2 [Compound 24, CC1=NN(C)C=C1C(=O)NC2CCC3(CC2)CCN(CC3)C(=O)C=4SC=5N=NC(C)=C(C)C5C4N] | 40,95 ± 7,16 RUs |  |  |  | Positive | 1760 | 2.35
CCCc1c(C(=O)N2CCC(F)(F)C(CNC(=O)c3nc(C)c(C)s3)C2)[nH]c(C)c1C(C)=O (stereo not drawn) [Compound 25, CCCC1=C(NC(C)=C1C(=O)C)C(=O)N2CCC(F)(F)C(CNC(=O)C3=NC(C)=C(C)S3)C2] | 22,43 ± 8,33 RUs |  |  |  | Negative | 149 | 2.41
CCCc1c(C(=O)N2CCOC(CN(C)C(=O)c3cccn3C)C2)[nH]c(C)c1C(C)=O (stereo not drawn) [Compound 26, CCCC1=C(NC(C)=C1C(=O)C)C(=O)N2CCOC(CN(C)C(=O)C3=CC=CN3C)C2] | 22,04 ± 8,53 RUs |  |  |  | Negative | 1020 | 2.61
COc1cccc(-n2c(C)nnc2SCC(=O)NC2(CO)CCCCCCC2)c1 [Compound 27, COC=1C=CC=C(C1)N2C(C)=NN=C2SCC(=O)NC3(CO)CCCCCCC3] | 28,33 ± 20,88 RUs | -0.98 | Negative |  | Negative |  | 
COc1ccc(-n2c(C)nnc2SCC(=O)NCC2(N)CCOCC2)cc1 [Compound 28, COC=1C=CC(=CC1)N2C(C)=NN=C2SCC(=O)NCC3(N)CCOCC3] | 16,66 ± 3,56 RUs |  | Negative |  | Positive |  | 0.36
CC(=O)c1c(C)[nH]c(C(=O)N2CCCC(c3cn(CC4CC5CC5C4)nn3)C2)c1C (stereo not drawn) [Compound 29, CC(=O)C1=C(C)NC(C(=O)N2CCCC(C2)C3=CN(CC4CC5CC5C4)N=N3)=C1C] |  |  | Negative |  | Negative |  | -1.17
COc1cccc(-n2c(C)nnc2SCC(=O)N2CCCN(C(=O)c3cc(F)c[nH]3)CC2)c1 [Compound 30, COC=1C=CC=C(C1)N2C(C)=NN=C2SCC(=O)N3CCCN(CC3)C(=O)C4=CC(F)=CN4] | 17,68 ± 18,73 RUs |  | Negative |  | Negative |  | 0.43
CCn1nnc2cc(C(=O)N3CCC(CCNC(=O)c4nc(O)sc4C)C3)ccc21 (stereo not drawn) [Compound 31, CCN1N=NC=2C=C(C=CC12)C(=O)N3CCC(CCNC(=O)C=4N=C(O)SC4C)C3] | 8,73 ± 4,6 RUs |  | Negative |  | Negative |  | 0.02
COc1cccc(-n2c(C)nnc2SCC(=O)NC2CN(C(=O)C3CCOCC3)CC23CC3)c1 (stereo not drawn) [Compound 32, COC=1C=CC=C(C1)N2C(C)=NN=C2SCC(=O)NC3CN(CC43CC4)C(=O)C5CCOCC5] | 3,3 ± 1,9 RUs |  |  |  | Negative | 386 | 0.87
CCCc1c(C(=O)N2CCC(Cc3cn(-c4cccc(F)c4C)nn3)C2)[nH]c(C)c1C(C)=O (stereo not drawn) [Compound 33, CCCC1=C(NC(C)=C1C(=O)C)C(=O)N2CCC(CC3=CN(N=N3)C=4C=CC=C(F)C4C)C2] | 8,85 ± 1,09 RUs |  | Negative |  | Negative |  | 0.1
Cc1cc(C)n2nc(NC(=O)N3CCC(F)(F)C4(CCOC4)C3)nc2n1 (stereo not drawn) [Compound 68, CC=1C=C(C)N2N=C(NC(=O)N3CCC(F)(F)C4(CCOC4)C3)N=C2N1] | 9,66 ± 4,71 RUs |  |  |  | Negative |  | 1.11
